# What was measured:
# Experiment in all cases: KINOMEscan
# Assay type in all cases: binding
# Conditions in all cases: 10000 nM; read-out: Percent Control
# AKT1 = biological target: T1, AKT1 (Homo sapiens, UniProt P31749)
# T1 construct: purchased DiscoverX KINOMEscan scanEDGE; Eurofins Cerep SafetyScreen87
# Procedure: (§1) The possibility of KDS12025 on kinase off-target, the KINOMEscan panel of scanEDGE assay was conducted in DiscoverX (CA, USA) using a site-directed competition binding with the test compounds. The assay results are given in Supplementary Table 4 and experimental information is available on the DiscoverX web page (www.discoverx.com). Moreover, the Delta SafetyScreen87 panel assay was conducted in Eurofins Discovery (Cerep, France). The assay results are given in Supplementary Table 5 and experimental information is available on the DiscoverX web page (https://www.eurofinsdiscoveryservices.com).
# TGFBR1 = biological target: T2, TGFBR1 (Homo sapiens, UniProt P36897)
# T2 construct: purchased DiscoverX KINOMEscan scanEDGE; Eurofins Cerep SafetyScreen87
# T2 sequence (P36897 34-503): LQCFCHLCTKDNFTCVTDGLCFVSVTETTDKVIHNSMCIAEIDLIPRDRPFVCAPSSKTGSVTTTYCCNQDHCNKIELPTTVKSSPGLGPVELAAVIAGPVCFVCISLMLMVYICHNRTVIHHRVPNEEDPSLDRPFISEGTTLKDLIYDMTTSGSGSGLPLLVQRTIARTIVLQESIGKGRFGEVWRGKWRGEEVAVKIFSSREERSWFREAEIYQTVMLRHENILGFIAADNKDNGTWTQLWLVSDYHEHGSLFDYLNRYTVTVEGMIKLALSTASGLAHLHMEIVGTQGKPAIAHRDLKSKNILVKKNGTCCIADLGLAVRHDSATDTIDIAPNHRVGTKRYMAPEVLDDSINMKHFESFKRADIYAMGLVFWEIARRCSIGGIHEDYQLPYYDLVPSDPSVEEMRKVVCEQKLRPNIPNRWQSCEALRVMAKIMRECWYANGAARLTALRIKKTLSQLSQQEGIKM
# Procedure: as §1
# JNK3 = biological target: T3, JNK3 (Homo sapiens, UniProt P53779)
# T3 construct: purchased DiscoverX KINOMEscan scanEDGE; Eurofins Cerep SafetyScreen87
# T3 sequence (P53779 whole entry): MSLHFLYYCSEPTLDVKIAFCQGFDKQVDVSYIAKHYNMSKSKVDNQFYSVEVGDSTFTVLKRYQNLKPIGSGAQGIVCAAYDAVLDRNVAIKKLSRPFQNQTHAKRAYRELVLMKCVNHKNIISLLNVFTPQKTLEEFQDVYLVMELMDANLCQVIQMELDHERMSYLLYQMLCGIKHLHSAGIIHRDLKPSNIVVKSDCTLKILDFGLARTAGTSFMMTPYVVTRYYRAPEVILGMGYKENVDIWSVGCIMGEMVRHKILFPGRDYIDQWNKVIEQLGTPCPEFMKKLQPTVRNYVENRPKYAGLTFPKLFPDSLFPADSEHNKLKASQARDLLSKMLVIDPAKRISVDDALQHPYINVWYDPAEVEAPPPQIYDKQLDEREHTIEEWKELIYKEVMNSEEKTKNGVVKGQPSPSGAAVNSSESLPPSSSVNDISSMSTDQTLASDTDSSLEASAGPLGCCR
# Procedure: as §1
# MEK1 = biological target: T4, MEK1 (Homo sapiens, UniProt Q02750)
# T4 construct: purchased DiscoverX KINOMEscan scanEDGE; Eurofins Cerep SafetyScreen87
# Procedure: as §1
# RAF1 = biological target: T5, RAF1 (Homo sapiens, UniProt P04049)
# T5 construct: purchased DiscoverX KINOMEscan scanEDGE; Eurofins Cerep SafetyScreen87
# Procedure: as §1
# EGFR(L858R) = biological target: T6, EGFR(L858R) (Homo sapiens, UniProt P00533, L858R)
# T6 construct: purchased DiscoverX KINOMEscan scanEDGE; Eurofins Cerep SafetyScreen87
# Procedure: as §1
# p38-beta = biological target: T7, p38-beta (Homo sapiens, UniProt Q15759)
# T7 construct: purchased DiscoverX KINOMEscan scanEDGE; Eurofins Cerep SafetyScreen87
# Procedure: as §1
# PKAC-alpha = biological target: T8, PKAC-alpha (Homo sapiens, UniProt P17612)
# T8 construct: purchased DiscoverX KINOMEscan scanEDGE; Eurofins Cerep SafetyScreen87
# Procedure: as §1
# PDGFRB = biological target: T9, PDGFRB (Homo sapiens, UniProt P09619)
# T9 construct: purchased DiscoverX KINOMEscan scanEDGE; Eurofins Cerep SafetyScreen87
# Procedure: as §1
# INSR = biological target: T10, INSR (Homo sapiens, UniProt P06213)
# T10 construct: purchased DiscoverX KINOMEscan scanEDGE; Eurofins Cerep SafetyScreen87
# Procedure: as §1
# [1] = biological target: T11, ABL1(E255K)-phosphorylated (Homo sapiens, UniProt P00519, E255K)
# T11 construct: purchased DiscoverX KINOMEscan scanEDGE; Eurofins Cerep SafetyScreen87
# Procedure: as §1
# ERBB2 = biological target: T12, ERBB2 (Homo sapiens, UniProt P04626)
# T12 construct: purchased DiscoverX KINOMEscan scanEDGE; Eurofins Cerep SafetyScreen87
# Procedure: as §1
# PLK3 = biological target: T13, PLK3 (Homo sapiens, UniProt Q9H4B4)
# T13 construct: purchased DiscoverX KINOMEscan scanEDGE; Eurofins Cerep SafetyScreen87
# T13 sequence (Q9H4B4 whole entry): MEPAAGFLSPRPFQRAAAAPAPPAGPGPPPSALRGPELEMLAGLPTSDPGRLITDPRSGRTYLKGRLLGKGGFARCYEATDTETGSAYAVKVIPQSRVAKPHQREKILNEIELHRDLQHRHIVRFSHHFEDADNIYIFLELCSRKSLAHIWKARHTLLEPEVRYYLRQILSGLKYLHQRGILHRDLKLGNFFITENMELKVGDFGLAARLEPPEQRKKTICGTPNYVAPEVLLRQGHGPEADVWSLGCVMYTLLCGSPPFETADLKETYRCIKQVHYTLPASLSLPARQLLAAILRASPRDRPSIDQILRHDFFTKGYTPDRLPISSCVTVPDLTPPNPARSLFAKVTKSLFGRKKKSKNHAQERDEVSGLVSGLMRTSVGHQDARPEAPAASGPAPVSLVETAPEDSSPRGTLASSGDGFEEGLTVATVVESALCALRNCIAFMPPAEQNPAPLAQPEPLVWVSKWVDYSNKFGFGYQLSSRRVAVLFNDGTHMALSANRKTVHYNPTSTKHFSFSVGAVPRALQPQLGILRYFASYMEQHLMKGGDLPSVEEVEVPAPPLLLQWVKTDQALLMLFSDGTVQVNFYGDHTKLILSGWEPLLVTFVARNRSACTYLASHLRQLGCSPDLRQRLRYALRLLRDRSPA
# Procedure: as §1
# ROCK2 = biological target: T14, ROCK2 (Homo sapiens, UniProt O75116)
# T14 construct: purchased DiscoverX KINOMEscan scanEDGE; Eurofins Cerep SafetyScreen87
# Procedure: as §1
# JNK2 = biological target: T15, JNK2 (Homo sapiens, UniProt P45984)
# T15 construct: purchased DiscoverX KINOMEscan scanEDGE; Eurofins Cerep SafetyScreen87
# Procedure: as §1
# MLK1 = biological target: T16, MLK1 (Homo sapiens, UniProt P80192)
# T16 construct: purchased DiscoverX KINOMEscan scanEDGE; Eurofins Cerep SafetyScreen87
# Procedure: as §1
# CDK11 = biological target: T17, CDK11 (Homo sapiens, UniProt Q9BWU1)
# T17 construct: purchased DiscoverX KINOMEscan scanEDGE; Eurofins Cerep SafetyScreen87
# Procedure: as §1
# PLK1 = biological target: T18, PLK1 (Homo sapiens, UniProt P53350)
# T18 construct: purchased DiscoverX KINOMEscan scanEDGE; Eurofins Cerep SafetyScreen87
# Procedure: as §1
# ACVR1B = biological target: T19, ACVR1B (Homo sapiens, UniProt P36896)
# T19 construct: purchased DiscoverX KINOMEscan scanEDGE; Eurofins Cerep SafetyScreen87
# Procedure: as §1
# PDGFRA = biological target: T20, PDGFRA (Homo sapiens, UniProt P16234)
# T20 construct: purchased DiscoverX KINOMEscan scanEDGE; Eurofins Cerep SafetyScreen87
# Procedure: as §1
# AKT2 = biological target: T21, AKT2 (Homo sapiens, UniProt P31751)
# T21 construct: purchased DiscoverX KINOMEscan scanEDGE; Eurofins Cerep SafetyScreen87
# Procedure: as §1
# CDK3 = biological target: T22, CDK3 (Homo sapiens, UniProt Q00526)
# T22 construct: purchased DiscoverX KINOMEscan scanEDGE; Eurofins Cerep SafetyScreen87
# T22 sequence (Q00526 whole entry): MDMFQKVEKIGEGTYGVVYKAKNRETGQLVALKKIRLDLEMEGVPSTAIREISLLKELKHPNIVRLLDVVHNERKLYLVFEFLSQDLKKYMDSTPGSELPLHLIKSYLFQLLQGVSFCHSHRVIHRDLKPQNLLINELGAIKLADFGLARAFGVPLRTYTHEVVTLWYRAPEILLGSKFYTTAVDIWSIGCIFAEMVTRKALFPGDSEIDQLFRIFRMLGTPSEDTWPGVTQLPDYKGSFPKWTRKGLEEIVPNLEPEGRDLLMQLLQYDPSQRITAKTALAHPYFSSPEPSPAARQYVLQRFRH
# Procedure: as §1
# SRC = biological target: T23, SRC (Homo sapiens, UniProt P12931)
# T23 construct: purchased DiscoverX KINOMEscan scanEDGE; Eurofins Cerep SafetyScreen87
# Procedure: as §1
# [2] = biological target: T24, RSK2(Kin.Dom.1-N-terminal) (Homo sapiens, UniProt P51812)
# T24 construct: RSK2(Kin.Dom.1-N-terminal); purchased DiscoverX KINOMEscan scanEDGE; Eurofins Cerep SafetyScreen87
# Procedure: as §1
# MKNK2 = biological target: T25, MKNK2 (Homo sapiens, UniProt Q9HBH9)
# T25 construct: purchased DiscoverX KINOMEscan scanEDGE; Eurofins Cerep SafetyScreen87
# T25 sequence (Q9HBH9 whole entry): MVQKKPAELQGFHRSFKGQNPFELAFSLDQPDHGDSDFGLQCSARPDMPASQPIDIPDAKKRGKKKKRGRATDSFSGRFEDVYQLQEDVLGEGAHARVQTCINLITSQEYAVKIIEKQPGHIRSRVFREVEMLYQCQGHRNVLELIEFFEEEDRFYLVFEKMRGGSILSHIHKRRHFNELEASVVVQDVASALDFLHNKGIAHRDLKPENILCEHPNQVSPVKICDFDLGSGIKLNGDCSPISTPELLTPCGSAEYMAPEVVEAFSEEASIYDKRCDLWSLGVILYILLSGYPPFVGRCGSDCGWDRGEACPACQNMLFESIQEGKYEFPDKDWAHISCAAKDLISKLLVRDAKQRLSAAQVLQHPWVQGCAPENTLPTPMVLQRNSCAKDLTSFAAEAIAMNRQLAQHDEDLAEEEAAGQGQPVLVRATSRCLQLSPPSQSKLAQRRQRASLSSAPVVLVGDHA
# Procedure: as §1
# SNARK = biological target: T26, SNARK (Homo sapiens, UniProt Q9H093)
# T26 construct: purchased DiscoverX KINOMEscan scanEDGE; Eurofins Cerep SafetyScreen87
# Procedure: as §1
# MARK3 = biological target: T27, MARK3 (Homo sapiens, UniProt P27448)
# T27 construct: purchased DiscoverX KINOMEscan scanEDGE; Eurofins Cerep SafetyScreen87
# T27 sequence (P27448 whole entry): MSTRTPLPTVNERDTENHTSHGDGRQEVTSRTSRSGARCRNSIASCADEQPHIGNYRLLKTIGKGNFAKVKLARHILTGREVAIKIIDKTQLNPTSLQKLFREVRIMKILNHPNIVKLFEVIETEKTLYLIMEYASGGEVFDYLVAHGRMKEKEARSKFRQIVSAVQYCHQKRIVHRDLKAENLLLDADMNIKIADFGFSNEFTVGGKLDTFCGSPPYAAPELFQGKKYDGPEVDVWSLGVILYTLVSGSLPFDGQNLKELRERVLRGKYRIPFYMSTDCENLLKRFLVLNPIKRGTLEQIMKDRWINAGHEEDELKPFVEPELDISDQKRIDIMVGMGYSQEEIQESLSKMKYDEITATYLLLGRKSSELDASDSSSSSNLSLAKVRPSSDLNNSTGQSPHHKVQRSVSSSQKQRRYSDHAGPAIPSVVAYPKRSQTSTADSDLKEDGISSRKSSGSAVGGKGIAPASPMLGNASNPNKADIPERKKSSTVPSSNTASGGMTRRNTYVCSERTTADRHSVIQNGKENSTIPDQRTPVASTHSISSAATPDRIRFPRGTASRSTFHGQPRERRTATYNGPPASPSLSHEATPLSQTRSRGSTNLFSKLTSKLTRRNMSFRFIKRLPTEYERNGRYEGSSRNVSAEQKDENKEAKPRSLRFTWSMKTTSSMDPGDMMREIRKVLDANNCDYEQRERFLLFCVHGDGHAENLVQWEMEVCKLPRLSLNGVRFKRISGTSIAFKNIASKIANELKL
# Procedure: as §1
# AURKA = biological target: T28, AURKA (Homo sapiens, UniProt O14965)
# T28 construct: purchased DiscoverX KINOMEscan scanEDGE; Eurofins Cerep SafetyScreen87
# Procedure: as §1
# DCAMKL1 = biological target: T29, DCAMKL1 (Homo sapiens, UniProt O15075)
# T29 construct: purchased DiscoverX KINOMEscan scanEDGE; Eurofins Cerep SafetyScreen87
# Procedure: as §1
# AXL = biological target: T30, AXL (Homo sapiens, UniProt P30530)
# T30 construct: purchased DiscoverX KINOMEscan scanEDGE; Eurofins Cerep SafetyScreen87
# Procedure: as §1
# [3] = biological target: T31, JAK2(JH1domain-catalytic) (Homo sapiens, UniProt O60674)
# T31 construct: JAK2(JH1domain-catalytic); purchased DiscoverX KINOMEscan scanEDGE; Eurofins Cerep SafetyScreen87
# T31 sequence (O60674 840-1132 limits assumed): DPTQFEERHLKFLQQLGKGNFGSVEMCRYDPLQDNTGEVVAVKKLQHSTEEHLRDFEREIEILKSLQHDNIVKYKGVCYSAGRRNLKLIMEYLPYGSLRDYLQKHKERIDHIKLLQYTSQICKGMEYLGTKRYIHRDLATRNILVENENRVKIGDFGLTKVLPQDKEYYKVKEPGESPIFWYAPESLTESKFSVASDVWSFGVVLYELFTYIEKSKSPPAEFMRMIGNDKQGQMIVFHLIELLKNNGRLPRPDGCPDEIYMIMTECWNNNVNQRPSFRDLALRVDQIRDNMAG
# Procedure: as §1
# PCTK1 = biological target: T32, PCTK1 (Homo sapiens, UniProt Q00536)
# T32 construct: purchased DiscoverX KINOMEscan scanEDGE; Eurofins Cerep SafetyScreen87
# T32 sequence (Q00536 whole entry): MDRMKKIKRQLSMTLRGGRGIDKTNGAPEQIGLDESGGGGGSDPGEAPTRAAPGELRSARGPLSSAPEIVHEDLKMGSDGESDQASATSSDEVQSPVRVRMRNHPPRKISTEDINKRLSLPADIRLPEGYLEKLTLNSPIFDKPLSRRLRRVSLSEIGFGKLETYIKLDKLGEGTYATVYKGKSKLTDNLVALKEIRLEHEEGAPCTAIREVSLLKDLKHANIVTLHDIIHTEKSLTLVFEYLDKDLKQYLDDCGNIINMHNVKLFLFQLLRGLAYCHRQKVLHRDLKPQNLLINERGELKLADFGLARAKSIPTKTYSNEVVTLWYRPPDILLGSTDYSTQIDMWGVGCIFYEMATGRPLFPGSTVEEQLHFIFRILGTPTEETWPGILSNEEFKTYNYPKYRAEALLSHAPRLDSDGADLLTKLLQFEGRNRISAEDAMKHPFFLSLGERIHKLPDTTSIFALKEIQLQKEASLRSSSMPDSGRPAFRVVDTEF
# Procedure: as §1
# PRKCE = biological target: T33, PRKCE (Homo sapiens, UniProt Q02156)
# T33 construct: purchased DiscoverX KINOMEscan scanEDGE; Eurofins Cerep SafetyScreen87
# Procedure: as §1
# PIM3 = biological target: T34, PIM3 (Homo sapiens, UniProt Q86V86)
# T34 construct: purchased DiscoverX KINOMEscan scanEDGE; Eurofins Cerep SafetyScreen87
# Procedure: as §1
# FLT3 = biological target: T35, FLT3 (Homo sapiens, UniProt P36888)
# T35 construct: purchased DiscoverX KINOMEscan scanEDGE; Eurofins Cerep SafetyScreen87
# T35 sequence (P36888 27-993): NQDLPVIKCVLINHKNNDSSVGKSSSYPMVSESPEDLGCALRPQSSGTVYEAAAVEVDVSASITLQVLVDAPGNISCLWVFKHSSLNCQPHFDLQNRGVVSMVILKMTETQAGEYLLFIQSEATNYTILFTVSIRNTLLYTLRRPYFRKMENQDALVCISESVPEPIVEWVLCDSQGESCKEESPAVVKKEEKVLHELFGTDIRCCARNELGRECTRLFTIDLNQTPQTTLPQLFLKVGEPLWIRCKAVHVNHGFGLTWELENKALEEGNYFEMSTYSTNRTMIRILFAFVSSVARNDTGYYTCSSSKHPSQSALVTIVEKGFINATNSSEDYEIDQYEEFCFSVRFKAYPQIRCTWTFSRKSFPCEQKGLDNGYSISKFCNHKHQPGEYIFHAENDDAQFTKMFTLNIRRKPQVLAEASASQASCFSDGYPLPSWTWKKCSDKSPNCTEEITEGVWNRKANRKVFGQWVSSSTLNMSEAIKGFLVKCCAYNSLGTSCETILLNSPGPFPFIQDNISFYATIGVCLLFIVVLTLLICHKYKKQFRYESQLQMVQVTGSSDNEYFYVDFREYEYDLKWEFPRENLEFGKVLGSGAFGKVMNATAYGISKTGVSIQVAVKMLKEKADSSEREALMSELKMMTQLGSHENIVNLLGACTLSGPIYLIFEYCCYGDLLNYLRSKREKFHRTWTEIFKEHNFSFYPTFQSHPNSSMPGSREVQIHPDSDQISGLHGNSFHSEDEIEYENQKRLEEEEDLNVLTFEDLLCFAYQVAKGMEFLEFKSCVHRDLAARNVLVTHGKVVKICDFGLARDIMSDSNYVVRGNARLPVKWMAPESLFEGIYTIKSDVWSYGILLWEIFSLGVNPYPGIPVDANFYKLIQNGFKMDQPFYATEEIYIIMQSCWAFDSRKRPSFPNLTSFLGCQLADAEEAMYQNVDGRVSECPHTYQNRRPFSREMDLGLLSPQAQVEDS
# Procedure: as §1
# LKB1 = biological target: T36, LKB1 (Homo sapiens, UniProt Q15831)
# T36 construct: purchased DiscoverX KINOMEscan scanEDGE; Eurofins Cerep SafetyScreen87
# Procedure: as §1
# PAK4 = biological target: T37, PAK4 (Homo sapiens, UniProt O96013)
# T37 construct: purchased DiscoverX KINOMEscan scanEDGE; Eurofins Cerep SafetyScreen87
# Procedure: as §1
# MEK2 = biological target: T38, MEK2 (Homo sapiens, UniProt P36507)
# T38 construct: purchased DiscoverX KINOMEscan scanEDGE; Eurofins Cerep SafetyScreen87
# Procedure: as §1
# PIK3CG = biological target: T39, PIK3CG (Homo sapiens, UniProt P48736)
# T39 construct: purchased DiscoverX KINOMEscan scanEDGE; Eurofins Cerep SafetyScreen87
# Procedure: as §1
structure (smiles),measurement,setting,value
"CNc1ccc(NCCc2ccccc2OC)cc1.Cl [KDS12025, N^1-(2-methoxyphenethyl)-N^4-methylbenzene-1,4-diamine hydrochloride salt]",remaining binding at 10 µM,AKT1,75%
same,remaining binding at 10 µM,TGFBR1,96%
same,remaining binding at 10 µM,JNK3,68%
same,remaining binding at 10 µM,MEK1,82%
same,remaining binding at 10 µM,RAF1,95%
same,remaining binding at 10 µM,EGFR(L858R),45%
same,remaining binding at 10 µM,p38-beta,100%
same,remaining binding at 10 µM,PKAC-alpha,74%
same,remaining binding at 10 µM,PDGFRB,92%
same,remaining binding at 10 µM,INSR,85%
same,remaining binding at 10 µM,[1],100%
same,remaining binding at 10 µM,ERBB2,100%
same,remaining binding at 10 µM,PLK3,75%
same,remaining binding at 10 µM,ROCK2,85%
same,remaining binding at 10 µM,JNK2,91%
same,remaining binding at 10 µM,MLK1,79%
same,remaining binding at 10 µM,CDK11,73%
same,remaining binding at 10 µM,PLK1,100%
same,remaining binding at 10 µM,ACVR1B,100%
same,remaining binding at 10 µM,PDGFRA,85%
same,remaining binding at 10 µM,AKT2,94%
same,remaining binding at 10 µM,CDK3,79%
same,remaining binding at 10 µM,SRC,72%
same,remaining binding at 10 µM,[2],84%
same,remaining binding at 10 µM,MKNK2,95%
same,remaining binding at 10 µM,SNARK,100%
same,remaining binding at 10 µM,MARK3,66%
same,remaining binding at 10 µM,AURKA,86%
same,remaining binding at 10 µM,DCAMKL1,82%
same,remaining binding at 10 µM,AXL,95%
same,remaining binding at 10 µM,[3],100%
same,remaining binding at 10 µM,PCTK1,94%
same,remaining binding at 10 µM,PRKCE,100%
same,remaining binding at 10 µM,PIM3,84%
same,remaining binding at 10 µM,FLT3,100%
same,remaining binding at 10 µM,LKB1,80%
same,remaining binding at 10 µM,PAK4,100%
same,remaining binding at 10 µM,MEK2,91%
same,remaining binding at 10 µM,PIK3CG,100%

# Source: publication PMC12373846, “Hemoglobin as a pseudoperoxidase and drug target for oxidative stress-related diseases” (Signal Transduction and Targeted Therapy, 2025)
